Assay results from patent US10023570B2 (Array BioPharma, Inc., priority 2015, dated 2018).
pIC50: −log10 of the molar value. Counter-ions that a name gives are not always drawn. Like-named read-outs stand apart in the source and are kept apart here.

Experiments:
[1] = target: human KDR protein in HEK-293 cells (Homo sapiens (Human), UniProt P35968); experiment: KDR Cell Assay (phospho-KDR in HEK-293 cells expressing inducible KDR); type: cell-based; details: pKDR Cell HEK 10% FBS IC50, HEK-293 cells expressing inducible KDR, VEGF stimulated, 10% FBS
Chain of human KDR protein in HEK-293 cells (P35968 20-1356): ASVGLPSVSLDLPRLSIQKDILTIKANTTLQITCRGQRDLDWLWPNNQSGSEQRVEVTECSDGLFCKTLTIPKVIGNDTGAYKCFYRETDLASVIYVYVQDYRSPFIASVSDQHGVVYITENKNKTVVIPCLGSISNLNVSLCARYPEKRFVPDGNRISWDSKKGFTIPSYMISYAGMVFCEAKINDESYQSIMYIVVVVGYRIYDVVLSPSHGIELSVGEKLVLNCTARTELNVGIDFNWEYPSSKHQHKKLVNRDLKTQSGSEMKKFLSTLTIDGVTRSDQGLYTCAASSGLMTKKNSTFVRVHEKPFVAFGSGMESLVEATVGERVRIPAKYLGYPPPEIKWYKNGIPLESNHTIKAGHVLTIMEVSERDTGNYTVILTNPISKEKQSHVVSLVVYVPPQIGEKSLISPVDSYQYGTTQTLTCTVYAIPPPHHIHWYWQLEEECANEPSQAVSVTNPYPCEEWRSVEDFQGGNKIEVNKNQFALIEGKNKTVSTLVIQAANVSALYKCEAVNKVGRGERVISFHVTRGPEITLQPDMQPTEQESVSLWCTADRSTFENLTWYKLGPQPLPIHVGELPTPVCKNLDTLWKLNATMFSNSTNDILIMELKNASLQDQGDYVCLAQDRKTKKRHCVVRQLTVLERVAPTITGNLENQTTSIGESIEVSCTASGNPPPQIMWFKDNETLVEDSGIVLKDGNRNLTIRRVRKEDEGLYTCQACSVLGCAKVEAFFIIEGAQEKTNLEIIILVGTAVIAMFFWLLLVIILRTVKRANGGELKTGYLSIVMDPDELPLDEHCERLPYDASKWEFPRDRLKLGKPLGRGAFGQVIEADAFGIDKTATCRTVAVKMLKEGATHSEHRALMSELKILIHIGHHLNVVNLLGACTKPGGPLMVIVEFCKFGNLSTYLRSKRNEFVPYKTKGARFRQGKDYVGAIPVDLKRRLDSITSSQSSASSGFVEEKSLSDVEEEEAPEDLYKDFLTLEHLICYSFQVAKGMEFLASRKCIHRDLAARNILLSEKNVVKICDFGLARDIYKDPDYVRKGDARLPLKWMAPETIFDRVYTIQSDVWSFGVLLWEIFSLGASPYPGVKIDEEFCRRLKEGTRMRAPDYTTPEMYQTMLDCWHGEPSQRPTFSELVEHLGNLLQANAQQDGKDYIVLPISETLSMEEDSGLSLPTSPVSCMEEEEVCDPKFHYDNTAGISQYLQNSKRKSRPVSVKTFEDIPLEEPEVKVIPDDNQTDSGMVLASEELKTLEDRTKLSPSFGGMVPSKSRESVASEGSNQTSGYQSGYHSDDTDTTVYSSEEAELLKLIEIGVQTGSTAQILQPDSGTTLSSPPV
In short: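 HEK-293 cells with inducible human KDR were treated with compound for 1 h in DMEM (0.25% DMSO final), then lysed. Phospho-KDR was quantified by Meso Scale immunoassay, expressed as percent of control, and IC50 taken where a 4-parameter logistic fit crossed 50 POC.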

[2] = target: Kif5b-RET fusion protein in HEK-293 cells (Homo sapiens, UniProt P07949); experiment: cell-based; details: HEK-293 cells expressing Kif5b-RET, phospho-RET(Tyr1062); read-out: KIF5B-RET pTYR1062 Cell IC50
Chain of Kif5b-RET fusion protein in HEK-293 cells (P07949 29-1114 limits assumed): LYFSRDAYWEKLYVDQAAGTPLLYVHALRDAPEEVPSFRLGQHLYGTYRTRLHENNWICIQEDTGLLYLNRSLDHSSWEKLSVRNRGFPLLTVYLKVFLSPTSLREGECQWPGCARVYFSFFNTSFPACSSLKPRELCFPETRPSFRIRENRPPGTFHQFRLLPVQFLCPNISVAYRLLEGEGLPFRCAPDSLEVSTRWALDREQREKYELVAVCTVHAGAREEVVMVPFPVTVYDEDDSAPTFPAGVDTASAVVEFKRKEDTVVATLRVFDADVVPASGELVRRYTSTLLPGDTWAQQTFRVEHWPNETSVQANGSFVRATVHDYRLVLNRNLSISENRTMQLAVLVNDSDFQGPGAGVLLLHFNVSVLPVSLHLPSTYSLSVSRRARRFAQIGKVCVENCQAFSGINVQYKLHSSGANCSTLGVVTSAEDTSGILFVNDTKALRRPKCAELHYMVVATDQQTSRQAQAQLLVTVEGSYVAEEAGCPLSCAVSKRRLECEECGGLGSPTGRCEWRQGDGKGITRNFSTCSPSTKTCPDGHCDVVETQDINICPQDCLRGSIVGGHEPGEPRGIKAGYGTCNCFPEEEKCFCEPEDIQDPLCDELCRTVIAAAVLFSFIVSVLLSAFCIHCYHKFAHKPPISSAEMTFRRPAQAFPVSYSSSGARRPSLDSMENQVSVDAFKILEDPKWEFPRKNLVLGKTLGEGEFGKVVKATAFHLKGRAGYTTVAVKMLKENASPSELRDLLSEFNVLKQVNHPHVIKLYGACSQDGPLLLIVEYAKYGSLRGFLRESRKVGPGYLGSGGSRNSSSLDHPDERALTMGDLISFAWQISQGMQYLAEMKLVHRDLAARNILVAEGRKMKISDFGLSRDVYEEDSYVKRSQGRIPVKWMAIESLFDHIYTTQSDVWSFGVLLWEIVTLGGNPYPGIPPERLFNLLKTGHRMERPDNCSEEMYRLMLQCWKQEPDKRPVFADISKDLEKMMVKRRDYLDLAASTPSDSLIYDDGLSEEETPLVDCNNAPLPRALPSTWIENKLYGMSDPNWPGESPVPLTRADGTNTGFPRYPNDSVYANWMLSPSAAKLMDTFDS

[3] = target: N-terminal GST tagged recombinant human RET cytoplasmic domain (aa 658-end), wild type RET kinase (Homo sapiens (Human), UniProt P07949); experiment: RET Enzyme Assay (HTRF KinEASE-TK), wild type RET; type: biochemical
Chain of N-terminal GST tagged recombinant human RET cytoplasmic domain (aa 658-end), wild type RET kinase (P07949 658-1114): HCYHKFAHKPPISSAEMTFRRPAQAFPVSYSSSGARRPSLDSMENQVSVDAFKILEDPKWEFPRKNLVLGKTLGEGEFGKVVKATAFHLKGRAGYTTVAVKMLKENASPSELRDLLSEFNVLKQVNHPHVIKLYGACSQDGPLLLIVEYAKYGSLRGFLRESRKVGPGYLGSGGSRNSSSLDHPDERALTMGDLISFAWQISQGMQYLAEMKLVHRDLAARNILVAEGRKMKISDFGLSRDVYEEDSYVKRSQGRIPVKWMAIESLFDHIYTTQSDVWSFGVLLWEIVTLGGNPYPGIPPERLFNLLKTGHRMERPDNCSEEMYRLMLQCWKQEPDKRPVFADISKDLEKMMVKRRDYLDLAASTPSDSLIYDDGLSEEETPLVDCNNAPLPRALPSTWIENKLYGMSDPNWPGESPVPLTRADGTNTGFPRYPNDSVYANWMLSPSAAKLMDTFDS

SMILES	pIC50 [1]	pIC50 [2]	pIC50 ([3]; wild type RET, 1 mM ATP)	pIC50 [3]
COC1CCN(c2ccc(-c3cc(-c4cnn(C)c4)cn4ncc(C#N)c34)cn2)CC1 [Example 198, 4-(6-(4-methoxypiperidin-1-yl)pyridin-3-yl)-6-(1-methyl-1H-pyrazol-4-yl)pyrazolo[1,5-a]pyridine-3-carbonitrile]	6.18	7.60	7.84	
Cn1cc(-c2cc(-c3ccc(N4CCC(C)(NC(=O)OC(C)(C)C)CC4)nc3)c3c(C#N)cnn3c2)cn1 [Example 201, tert-butyl (1-(5-(3-cyano-6-(1-methyl-1H-pyrazol-4-yl)pyrazolo[1,5-a]pyridin-4-yl)pyridin-2-yl)-4-methylpiperidin-4-yl)carbamate]	5.94	8.15	7.97	
Cn1cc(-c2cc(-c3ccc(N4CCC(C)(N)CC4)nc3)c3c(C#N)cnn3c2)cn1 [Example 202, 4-(6-(4-amino-4-methylpiperidin-1-yl)pyridin-3-yl)-6-(1-methyl-1H-pyrazol-4-yl)pyrazolo[1,5-a]pyridine-3-carbonitrile dihydrochloride]	6.00	6.96		7.38
CC(C)C(=O)NC1(C)CCN(c2ccc(-c3cc(-c4cnn(C)c4)cn4ncc(C#N)c34)cn2)CC1 [Example 203]	6.25	8.28	8.24	
CC(C)C(=O)N[C@@H]1CCCN(c2ccc(-c3cc(-c4cnn(C)c4)cn4ncc(C#N)c34)cn2)C1 [Example 226, (R)—N-(1-(5-(3-cyano-6-(1-methyl-1H-pyrazol-4-yl)pyrazolo[1,5-a]pyridin-4-yl)pyridin-2-yl)piperidin-3-yl)isobutyramide]	5.93	7.24	7.50	
C[C@H](NC(=O)C1CCN(c2ccc(-c3cc(-c4cnn(C)c4)cn4ncc(C#N)c34)cn2)CC1)C(F)(F)F [Example 231, (S)-1-(5-(3-cyano-6-(1-methyl-1H-pyrazol-4-yl)pyrazolo[1,5-a]pyridin-4-yl)pyridin-2-yl)-N-(1,1,1-trifluoropropan-2-yl)piperidine-4-carboxamide]	6.55	8.25	8.16	
C[C@@H](NC(=O)C1CCN(c2ccc(-c3cc(-c4cnn(C)c4)cn4ncc(C#N)c34)cn2)CC1)C(F)(F)F [Example 233, (R)-1-(5-(3-cyano-6-(1-methyl-1H-pyrazol-4-yl)pyrazolo[1,5-a]pyridin-4-yl)pyridin-2-yl)-N-(1,1,1-trifluoropropan-2-yl)piperidine-4-carboxamide]	6.29	7.56	7.87	

Further lines, with some results ahead:

pIC50 [1]	pIC50 [2]	pIC50 ([3]; wild type RET, 1 mM ATP)	SMILES	pIC50 [3]
6.09	7.61	7.92	COCC(C)NC(=O)C1CCN(c2ccc(-c3cc(-c4cnn(C)c4)cn4ncc(C#N)c34)cn2)CC1 (stereo not drawn) [Example 232, 1-(5-(3-cyano-6-(1-methyl-1H-pyrazol-4-yl)pyrazolo[1,5-a]pyridin-4-yl)pyridin-2-yl)-N-(1-methoxypropan-2-yl)piperidine-4-carboxamide]	
5.92	7.50	7.59	CC(C)OCCNC(=O)C1CCN(c2ccc(-c3cc(-c4cnn(C)c4)cn4ncc(C#N)c34)cn2)CC1 [Example 234, 1-(5-(3-cyano-6-(1-methyl-1H-pyrazol-4-yl)pyrazolo[1,5-a]pyridin-4-yl)pyridin-2-yl)-N-(2-isopropoxyethyl) piperidine-4-carboxamide]	
5.82	8.29	8.13	COC(CNC(=O)C1CCN(c2ccc(-c3cc(-c4cnn(C)c4)cn4ncc(C#N)c34)cn2)CC1)C(F)(F)F (stereo not drawn) [Example 235, 1-(5-(3-cyano-6-(1-methyl-1H-pyrazol-4-yl)pyrazolo[1,5-a]pyridin-4-yl)pyridin-2-yl)-N-(3,3,3-trifluoro-2-methoxypropyl) piperidine-4-carboxamide]	
